In patent US8282944B2, “Metal complexes incorporated within biodegradable nanoparticles and their use” (The University of Akron, priority 2007, dated 2012):

Tests used:
A375 melanoma = experiment: Anti-proliferative effects on A375 melanoma at 96 hours of growth; assay type: cell-based; settings: 0.5-25 μm, FIGS. 2 and 3
Method: (§1) The anti-proliferative effects of formula 23, cisplatin and carboplatin were investigated on A375 melanoma at 96 hours of growth and are shown in FIGS. 2 and 3. Percent control growth and percent standard error of the means (SEM) were conducted at various concentrations including 0.5 μm, 1.0 μm, 2.5 μm, 5.0 μm, 10 μm, 15 μm, 20 μm and 25 p.m.

[1] = tested on: ovarian cancer cell line NuTu-19; experiment: MTT test against ovarian cancer cell line NuTu-19; assay type: cell-based
Method: In one example, a silver(I) complex as represented in formula 23 has been tested for preliminary anticancer activity against the ovarian cancer cell line NuTu-19. Silver complex 23 was chosen because of its overall stability.
Cells were plated at 5000 cells per well in a 96-well plate. All tests were run in triplicate. Cells were allowed to incubate overnight after plating followed by the addition of a 50 μM solution of 23, cisplatin, and thiaether-RhCl3 dissolved in complete cell media. The cells were then incubated for 72 h followed by the addition of MTT dissolved in phosphate buffered saline (PBS) and incubated for another 4 h. A sodium dodecyl sulfate: 0.01M HCl (SDS) solution was then added and the cells were incubated overnight. The SDS solution is added to solubilize the blue formazan crystals that are formed by the reduction of MTT by living cells. The absorbance is then read on a microplate reader. Therefore, the higher the absorbance the more living cells present in cell colony.

HT1376 colon carcinoma = experiment: Anti-proliferative effects on HT1376 colon carcinoma at 96 hours of growth; assay type: cell-based; settings: 0.5-25 μm, FIGS. 6 and 7
Method: as §1, with “on HT1376 colon carcinoma” for “on A375 melanoma”, “FIGS. 6” for “FIGS. 2”, “and 7.” for “and 3.”, “25 μm.” for “25 p.m.”

ACHN renal carcinoma = experiment: Anti-proliferative effects on ACHN renal carcinoma at 96 hours of growth; assay type: cell-based; settings: 0.5-25 μm, FIGS. 4 and 5
Method: as §1, with “on ACHN renal carcinoma” for “on A375 melanoma”, “FIGS. 4” for “FIGS. 2”, “and 5.” for “and 3.”, “25 μm.” for “25 p.m.”

rat models = experiment: Toxicity in rat models via IV tail injection; assay type: in vivo
From the text: In one embodiment, the R group is an alcohol. Suitable alcohols include ethanol and propanol. For formula 26, n has a value between 1 and 200.

Compound	percent control growth compared to cisplatin and carboplatin (A375 melanoma)	cell kill (MTT absorbance, FIG. 1) ([1]; NuTu-19, 50 μM, after 72 h of incubation)	anticancer activity ([1]; NuTu-19, tested for a period of 72 hours, preliminary)	percent control growth compared to carboplatin and cisplatin (HT1376 colon carcinoma)	percent control growth compared to carboplatin (ACHN renal carcinoma)	percent control growth compared to cisplatin (ACHN renal carcinoma)	toxicity (rat models)
CC(=O)[O][Ag][CH]1N(C)C(Cl)=C(Cl)N1C [formula 23]	best control growth	kills all cells	shown anticancer activity	comparable control growth	comparable control growth	better control growth	
OC1(O)CN2C=CN3Cc4cccc(n4)CN4C=CN(C1)[CH]4[Ag][CH]1N4C=CN1CC(O)(O)CN1C=CN(Cc5cccc(n5)C4)[CH]1[Ag][CH]32 [formula 24]							severe toxicity
